Experiment [1] deals with EGFR L858R (Homo sapiens (Human), UniProt P00533, L858R). The experiment is described as follows: Biochemical EGFR inhibition assay, EGFR L858R. As to conditions: Caliper mobility shift; 1.0 mM ATP or ATP Km; read-out: Enz EGFR_L858R IC50.
The target in experiment [2] is EGFR (d746-750) (Homo sapiens (Human), UniProt P00533, DEL746-750). Kind of experiment: Biochemical EGFR inhibition assay, EGFR (d746-750). As to conditions: Caliper mobility shift; 1.0 mM ATP or ATP Km; read-out: Enz EGFR_Exon19-del746-750 IC50.
Experiment [3] has as its target pEGFR (Tyr1068) in PC-9 cells (Ex19Del) (Homo sapiens (Human), UniProt P00533, DEL746-750). The experiment is described as follows: PC-9 pEGFR AlphaLISA assay. Format: cell-based. The conditions noted are these: 4 hours incubation, p-EGFR (Tyr1068) AlphaLISA, read-out: Ext pEGFR_PC-9 Ex19Del IC50. The essentials: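 First, cells settled overnight in 10% FBS medium. Second, a 10-point, 4-fold series of test agents was applied for 4 h at 37° C. Third, lysates were probed with AlphaLISA acceptor and donor beads, incubated overnight in the dark. Last, IC50 was taken from the dose-response.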
(In Alpha technology, singlet oxygen from a donor bead excites a nearby acceptor bead.)

Drawing on US20250236608A1, “EGFR INHIBITORS” (Blueprint Medicines Corporation, priority 2022, published 2025), this text covers IC50 for 16 molecules.

What is called IC50 is the midpoint of a concentration-inhibition curve.

Structures are written as SMILES.

Sequence of EGFR L858R (P00533 25-1210 L858R): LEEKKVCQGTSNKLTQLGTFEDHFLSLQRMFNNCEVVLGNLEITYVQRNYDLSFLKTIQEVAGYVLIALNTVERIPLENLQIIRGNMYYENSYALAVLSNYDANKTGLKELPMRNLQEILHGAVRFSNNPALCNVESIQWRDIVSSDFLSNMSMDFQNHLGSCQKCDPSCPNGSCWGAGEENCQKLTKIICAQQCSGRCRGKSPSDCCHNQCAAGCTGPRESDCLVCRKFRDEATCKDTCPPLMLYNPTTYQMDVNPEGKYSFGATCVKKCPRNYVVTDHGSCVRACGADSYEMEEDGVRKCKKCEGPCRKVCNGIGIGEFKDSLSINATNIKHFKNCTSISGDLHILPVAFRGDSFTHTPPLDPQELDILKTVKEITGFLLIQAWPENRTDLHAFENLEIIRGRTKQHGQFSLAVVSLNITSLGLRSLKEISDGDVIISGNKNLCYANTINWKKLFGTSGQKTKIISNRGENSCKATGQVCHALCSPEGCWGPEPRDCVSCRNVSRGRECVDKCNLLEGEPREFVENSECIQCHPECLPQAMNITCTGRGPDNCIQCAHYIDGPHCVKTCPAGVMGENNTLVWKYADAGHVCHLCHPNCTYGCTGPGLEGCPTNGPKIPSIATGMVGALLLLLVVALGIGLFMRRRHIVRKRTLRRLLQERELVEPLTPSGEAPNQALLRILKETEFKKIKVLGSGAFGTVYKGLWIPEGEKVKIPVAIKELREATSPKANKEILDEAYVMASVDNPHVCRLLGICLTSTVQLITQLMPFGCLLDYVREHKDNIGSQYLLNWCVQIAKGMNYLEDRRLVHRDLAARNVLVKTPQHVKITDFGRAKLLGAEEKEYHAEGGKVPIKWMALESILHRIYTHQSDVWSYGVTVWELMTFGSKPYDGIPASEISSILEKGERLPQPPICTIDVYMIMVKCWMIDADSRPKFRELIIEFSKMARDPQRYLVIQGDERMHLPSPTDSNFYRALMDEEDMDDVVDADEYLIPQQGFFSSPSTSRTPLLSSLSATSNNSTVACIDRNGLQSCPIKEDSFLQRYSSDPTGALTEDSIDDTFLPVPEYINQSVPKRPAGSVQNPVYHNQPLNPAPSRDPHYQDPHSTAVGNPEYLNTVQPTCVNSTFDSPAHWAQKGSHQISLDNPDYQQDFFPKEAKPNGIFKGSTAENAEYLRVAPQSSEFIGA
Sequence of pEGFR (Tyr1068) in PC-9 cells (Ex19Del) (P00533 other isoform, or with tags, fused parts or gaps del 746-750): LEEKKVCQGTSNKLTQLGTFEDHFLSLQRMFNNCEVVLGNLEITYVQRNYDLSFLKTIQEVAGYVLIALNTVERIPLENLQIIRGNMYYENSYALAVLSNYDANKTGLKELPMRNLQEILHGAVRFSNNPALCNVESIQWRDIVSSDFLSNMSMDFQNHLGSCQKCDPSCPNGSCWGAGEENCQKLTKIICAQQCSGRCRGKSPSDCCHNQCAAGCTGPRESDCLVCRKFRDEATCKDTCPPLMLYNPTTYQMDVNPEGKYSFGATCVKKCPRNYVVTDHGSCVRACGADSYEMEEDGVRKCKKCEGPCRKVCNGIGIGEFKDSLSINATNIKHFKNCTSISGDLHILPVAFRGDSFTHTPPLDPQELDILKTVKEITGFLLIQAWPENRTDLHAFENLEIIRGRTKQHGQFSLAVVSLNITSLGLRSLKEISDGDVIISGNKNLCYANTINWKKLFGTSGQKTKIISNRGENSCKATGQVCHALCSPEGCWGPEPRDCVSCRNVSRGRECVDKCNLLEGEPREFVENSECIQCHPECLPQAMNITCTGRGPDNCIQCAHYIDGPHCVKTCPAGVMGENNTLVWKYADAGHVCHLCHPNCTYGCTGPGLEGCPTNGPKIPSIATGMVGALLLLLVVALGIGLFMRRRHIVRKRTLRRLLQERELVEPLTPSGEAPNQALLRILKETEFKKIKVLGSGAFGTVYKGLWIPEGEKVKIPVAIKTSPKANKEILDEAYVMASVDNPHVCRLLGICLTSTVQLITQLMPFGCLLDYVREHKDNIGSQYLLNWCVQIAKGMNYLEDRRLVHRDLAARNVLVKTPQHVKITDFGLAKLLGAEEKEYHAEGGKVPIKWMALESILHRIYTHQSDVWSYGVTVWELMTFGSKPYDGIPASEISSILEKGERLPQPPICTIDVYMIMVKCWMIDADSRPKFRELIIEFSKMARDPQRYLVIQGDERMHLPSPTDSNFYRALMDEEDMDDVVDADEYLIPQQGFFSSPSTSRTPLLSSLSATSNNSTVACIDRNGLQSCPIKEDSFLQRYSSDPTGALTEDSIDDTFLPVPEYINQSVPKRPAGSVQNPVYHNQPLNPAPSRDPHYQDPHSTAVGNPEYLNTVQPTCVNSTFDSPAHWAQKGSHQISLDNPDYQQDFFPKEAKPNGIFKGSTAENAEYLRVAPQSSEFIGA
Sequence of EGFR (d746-750) (P00533 other isoform, or with tags, fused parts or gaps del 1-694/del 746-750 limits assumed): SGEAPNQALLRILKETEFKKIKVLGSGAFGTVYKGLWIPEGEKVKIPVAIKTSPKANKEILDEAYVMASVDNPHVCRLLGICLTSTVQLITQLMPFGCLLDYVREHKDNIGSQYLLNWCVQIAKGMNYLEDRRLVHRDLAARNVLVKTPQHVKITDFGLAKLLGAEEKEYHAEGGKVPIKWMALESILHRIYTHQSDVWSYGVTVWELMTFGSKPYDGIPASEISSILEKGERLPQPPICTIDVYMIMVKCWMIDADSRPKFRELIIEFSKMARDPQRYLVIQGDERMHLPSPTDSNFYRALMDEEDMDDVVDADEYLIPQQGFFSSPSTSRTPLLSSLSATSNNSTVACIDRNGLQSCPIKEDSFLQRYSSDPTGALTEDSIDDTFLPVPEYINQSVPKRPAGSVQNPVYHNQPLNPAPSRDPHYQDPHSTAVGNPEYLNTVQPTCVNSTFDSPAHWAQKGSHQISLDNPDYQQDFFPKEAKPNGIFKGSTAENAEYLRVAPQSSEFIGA

Turning to `CC(C)Oc1cc2ncnc(-c3cn(C)nc3-c3ccccc3)c2cc1OC(=O)N1CCOC[C@H]1C` [Example 71, 7-isopropoxy-4-(1-methyl-3-phenyl-1H-pyrazol-4-yl)quinazolin-6-yl (R)-3-methylmorpholine-4-carboxylate], the 50% inhibitory concentration (IC50) in experiment [1] amounted to 4.5 nM; in experiment [2], 2.5 nM; in experiment [3] it was 6.8 nM.
On to `COc1cc2ncnc(-c3cn(C)nc3-c3ccc(F)cc3)c2nc1NC(=O)[C@@]12C[C@@H]1CN(C)C2` (single isomer, unassigned) [Example 410, (1S,5S)—N-(4-(3-(4-fluorophenyl)-1-methyl-1H-pyrazol-4-yl)-7-methoxypyrido[3,2-d]pyrimidin-6-yl)-3-methyl-3-azabicyclo[3.1.0]hexane-1-carboxamide or (1R,5R)—N-(4-(3-(4-fluorophenyl)-1-methyl-1H-pyrazol-4-yl)-7-methoxypyrido[3,2-d]pyrimidin-6-yl)-3-methyl-3-azabicyclo[3.1.0]hexane-1-carboxamide], for which the IC50 worked out at 2.9 nM in experiment [1], 1.1 nM in experiment [2] and 2.5 nM in experiment [3].
For `CC(C)Oc1cc2ncnc(-c3cn(C)nc3-c3ccccc3)c2cc1OC(C)C` [Example 26, 6,7-diisopropoxy-4-(1-methyl-3-phenyl-1H-pyrazol-4-yl)quinazoline] the same measures were 2.9 nM, 1.6 nM and 8 nM.
For `COc1cc2ncnc(-c3cn(C)nc3-c3ccccc3)c2cc1-c1cnc(C(C)(C)O)s1` [Example 149, 2-(5-(7-methoxy-4-(1-methyl-3-phenyl-1H-pyrazol-4-yl)quinazolin-6-yl)thiazol-2-yl) propan-2-ol] the same measures were 4.9 nM, 2.1 nM and 12.8 nM.
With `CCOc1cc2ncnc(-c3cn(C)nc3-c3ccccc3)c2nc1NC1CCOCC1` [Example 158, 7-ethoxy-4-(1-methyl-3-phenyl-1H-pyrazol-4-yl)-N-(tetrahydro-2H-pyran-4-yl)pyrido[3,2-d]pyrimidin-6-amine], the IC50 in experiment [1] came out at 1.7 nM; in experiment [2], 1.4 nM; in experiment [3] it was 0.2 nM.
For `CN1CC[C@@H](Oc2cc3c(-c4cn(C)nc4-c4ccccc4)ncnc3cc2OC(F)F)[C@H](F)C1` [Example 475, 7-(difluoromethoxy)-6-{[(3R,4R)-3-fluoro-1-methylpiperidin-4-yl]oxy}-4-(1-methyl-3-phenyl-1H-pyrazol-4-yl)quinazoline] the same measures were 65.5 nM, 21 nM and 71.6 nM.
As to `COc1cc2ncnc(-c3cn(C)nc3-c3ccccc3)c2nc1NC(=O)[C@@]1(C(F)(F)F)CCN(C)C1` (single isomer, unassigned) [Example 394, (R)—N-(7-methoxy-4-(1-methyl-3-phenyl-1H-pyrazol-4-yl)pyrido[3,2-d]pyrimidin-6-yl)-1-methyl-3-(trifluoromethyl) pyrrolidine-3-carboxamide or (S)—N-(7-methoxy-4-(1-methyl-3-phenyl-1H-pyrazol-4-yl)pyrido[3,2-d]pyrimidin-6-yl)-1-methyl-3-(trifluoromethyl) pyrrolidine-3-carboxamide], the half-inhibitory concentration (IC50) in experiment [1] amounted to 6.9 nM; in experiment [2] it was 2.7 nM; in experiment [3], 9.3 nM.
For the molecule `CCn1cc(-c2ncnc3cc(OC(F)F)c(NC(=O)C4CC4)cc23)c(-c2ccccc2)n1` [Example 302, N-(7-(difluoromethoxy)-4-(1-ethyl-3-phenyl-1H-pyrazol-4-yl)quinazolin-6-yl)cyclopropanecarboxamide], the figures for the IC50 in experiment [1], in experiment [2] and in experiment [3] were 1.4 nM, 0.7 nM and 1.6 nM, respectively.
Regarding `COc1cc2ncnc(-c3cn(C)nc3-c3ccccc3)c2nc1NC(=O)C1(F)CCN(C)C1` (stereo not drawn) [Example 433, 3-fluoro-N-(7-methoxy-4-(1-methyl-3-phenyl-1H-pyrazol-4-yl)pyrido[3,2-d]pyrimidin-6-yl)-1-methylpyrrolidine-3-carboxamide], the IC50 in experiment [1] came out at 24.9 nM; in experiment [2], 1.6 nM; in experiment [3], 10.5 nM.
For `CCn1cc(-c2ncnc3cc(OC)c(NC(=O)[C@]45COC[C@H]4C5)cc23)c(-c2ccc(F)cc2)n1` [Example 335, (1S,5S)—N-(4-(1-ethyl-3-(4-fluorophenyl)-1H-pyrazol-4-yl)-7-methoxyquinazolin-6-yl)-3-oxabicyclo[3.1.0]hexane-1-carboxamide] the same measures were 2.9 nM, 1.6 nM and 3 nM.
For the molecule `[2H]C([2H])([2H])n1ncc(-c2ncnc3cc(OC)c(NC(=O)C4(C(F)(F)F)CC4)nc23)c1-c1ccccc1` [Example 492], the IC50 came to 70.7 nM in experiment [1], 47.3 nM in experiment [2] and 636 nM in experiment [3].
Regarding `COc1cc2ncnc(-c3cn(C)nc3-c3ccccc3)c2nc1O[C@@H](C)c1cccnc1F` [Example 47, (S)-6-(1-(2-fluoropyridin-3-yl)ethoxy)-7-methoxy-4-(1-methyl-3-phenyl-1H-pyrazol-4-yl)pyrido[3,2-d]pyrimidine], the concentration for half-maximal inhibition (IC50) in experiment [1] was 2.6 nM; in experiment [2], 1.4 nM; in experiment [3], 2.1 nM.
For `COc1cc2ncnc(-c3cn(C)nc3-c3ccccc3)c2cc1NC(=O)c1cnc(C)c(F)c1` [Example 196, 5-fluoro-N-(7-methoxy-4-(1-methyl-3-phenyl-1H-pyrazol-4-yl)quinazolin-6-yl)-6-methylnicotinamide] the same measures were 1.7 nM, 0.9 nM and 1.5 nM.
For `COc1cc2ncnc(-c3cn(C)nc3-c3ccccc3F)c2cc1NC(=O)[C@]12C[C@H]1CN(C)C2` (single isomer, unassigned) [Example 255, (1R,5R)—N-(4-(3-(2-fluorophenyl)-1-methyl-1H-pyrazol-4-yl)-7-methoxyquinazolin-6-yl)-3-methyl-3-azabicyclo[3.1.0]hexane-1-carboxamide or (1S,5S)—N-(4-(3-(2-fluorophenyl)-1-methyl-1H-pyrazol-4-yl)-7-methoxyquinazolin-6-yl)-3-methyl-3-azabicyclo[3.1.0]hexane-1-carboxamide] the same measures were 2.7 nM, 1.8 nM and 3.8 nM.
For `COc1cc2ncnc(-c3cn(C)nc3-c3ccccc3)c2cc1NC(=O)c1cccc(F)c1Cl` [Example 199, 2-chloro-3-fluoro-N-(7-methoxy-4-(1-methyl-3-phenyl-1H-pyrazol-4-yl)quinazolin-6-yl)benzamide] the same measures were 1.6 nM, 1.1 nM and 1.9 nM.
Turning to `[2H]C([2H])([2H])N1CCN(C(=O)Nc2cc3c(-c4cn(C)nc4-c4ccccc4)ncnc3cc2OC)[C@@H](C)C1` [Example 181, (S)—N-(7-methoxy-4-(1-methyl-3-phenyl-1H-pyrazol-4-yl)quinazolin-6-yl)-2-methyl-4-(methyl-d3) piperazine-1-carboxamide], the half-inhibitory concentration (IC50) in experiment [1] amounted to 4.3 nM; in experiment [2], 2.7 nM; in experiment [3], 4.5 nM.
